Data taken from PubChem BioAssay AID1963839 (Molecular Pharmacology Branch, DTP, NCI, 2024).

Test system: 817829-284-R-J1-PDC complex spheroid viability
Assay: Anticancer human tumor 817829-284-R-J1-PDC patient-derived colon adenocarcinoma cell line growth inhibition [POLQ]
Conditions: for IC50: curve of first compound; for viability, T/C: stronger effect = lower value
In short: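 Three-cell-type spheroids modelling solid tumor plus stroma served as the readout system; POL inhibitors were tested individually and in combination, concentration ranges set by clinical Cmax where known.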

[1] = second compound 0.0316 µM, first compound 0.00316 µM
[2] = second compound 0.0316 µM, first compound 0.01 µM
[3] = second compound 0.0316 µM, first compound 0.0316 µM
[4] = second compound 0.0316 µM, first compound 0.1 µM
[5] = second compound 0.1 µM, first compound 0.00316 µM
[6] = second compound 0.1 µM, first compound 0.01 µM
[7] = second compound 0.1 µM, first compound 0.0316 µM
[8] = second compound 0.1 µM, first compound 0.1 µM
[9] = second compound 0.316 µM, first compound 0.00316 µM
[10] = second compound 0.316 µM, first compound 0.01 µM
[11] = second compound 0.316 µM, first compound 0.0316 µM
[12] = second compound 0.316 µM, first compound 0.1 µM
[13] = second compound 1 µM, first compound 0.00316 µM
[14] = second compound 1 µM, first compound 0.01 µM
[15] = second compound 1 µM, first compound 0.0316 µM
[16] = second compound 1 µM, first compound 0.1 µM
[17] = second compound 3.16 µM, first compound 0.00316 µM
[18] = second compound 3.16 µM, first compound 0.01 µM
[19] = second compound 3.16 µM, first compound 0.0316 µM
[20] = second compound 3.16 µM, first compound 0.1 µM
[21] = second compound 10 µM, first compound 0.00316 µM
[22] = second compound 10 µM, first compound 0.01 µM
[23] = second compound 10 µM, first compound 0.0316 µM
[24] = second compound 10 µM, first compound 0.1 µM
[25] = second compound 0.0316 µM, first compound 0.316 µM
[26] = second compound 0.0316 µM, first compound 1 µM
[27] = second compound 0.1 µM, first compound 0.316 µM
[28] = second compound 0.1 µM, first compound 1 µM
[29] = second compound 0.316 µM, first compound 0.316 µM
[30] = second compound 0.316 µM, first compound 1 µM
[31] = second compound 1 µM, first compound 0.316 µM
[32] = second compound 1 µM, first compound 1 µM
[33] = second compound 3.16 µM, first compound 0.316 µM
[34] = second compound 3.16 µM, first compound 1 µM
[35] = second compound 10 µM, first compound 0.316 µM
[36] = second compound 10 µM, first compound 1 µM
[37] = second compound 0.0316 µM, first compound 3.16 µM
[38] = second compound 0.0316 µM, first compound 10 µM
[39] = second compound 0.1 µM, first compound 3.16 µM
[40] = second compound 0.1 µM, first compound 10 µM
[41] = second compound 0.316 µM, first compound 3.16 µM
[42] = second compound 0.316 µM, first compound 10 µM
[43] = second compound 1 µM, first compound 3.16 µM
[44] = second compound 1 µM, first compound 10 µM
[45] = second compound 3.16 µM, first compound 3.16 µM
[46] = second compound 3.16 µM, first compound 10 µM
[47] = second compound 10 µM, first compound 3.16 µM
[48] = second compound 10 µM, first compound 10 µM
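Further: spheroids exposed to compounds for 7 days.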
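Wherever viability, T/C is given: 100% = DMSO vehicle-treated spheroids.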

Work on `CC[C@@]1(O)C(=O)OCc2c1cc1n(c2=O)Cc2cc3c(CN(C)C)c(O)ccc3nc2-1` + COC1C(OC(N)=O)C(O)C(Oc2ccc3c(O)c(NC(=O)c4ccc(O)c(CC=C(C)C)c4)c(=O)oc3c2C)OC1(C)C yielded an IC50 (second compound 0.0316 µM) of 0.00486 µM, an IC50 (second compound 0.1 µM) of 0.00613 µM and an IC50 (second compound 0.316 µM) of 0.00558 µM. For the same molecule, the IC50 (second compound 1 µM) was 0.00753 µM, the IC50 (second compound 3.16 µM) was 0.00795 µM and the IC50 (second compound 10 µM) was 0.00589 µM. For the same molecule, the viability, T/C (second compound 0.0316 µM, first compound 0.000316 µM) was 80.6%, the viability, T/C (second compound 0.0316 µM, first compound 0.001 µM) was 87.4% and the viability, T/C [1] was 58.6%. For the same molecule, the viability, T/C [2] was 32.5%, the viability, T/C [3] was 21.7% and the viability, T/C [4] was 16.1%. It also gave a viability, T/C (second compound 0.1 µM, first compound 0.000316 µM) of 69.7%, a viability, T/C (second compound 0.1 µM, first compound 0.001 µM) of 81.7% and a viability, T/C [5] of 76.2%. For the same molecule, the viability, T/C [6] was 30.9%, the viability, T/C [7] was 21.4% and the viability, T/C [8] was 15.7%. For the same molecule, the viability, T/C (second compound 0.316 µM, first compound 0.000316 µM) was 74.4%, the viability, T/C (second compound 0.316 µM, first compound 0.001 µM) was 78.8% and the viability, T/C [9] was 57.8%. The viability, T/C [10] was 40.8%, the viability, T/C [11] was 20.1% and the viability, T/C [12] was 17.3%. The viability, T/C (second compound 1 µM, first compound 0.000316 µM) was 83.2%, the viability, T/C (second compound 1 µM, first compound 0.001 µM) was 106% and the viability, T/C [13] was 84.1%. It also gave a viability, T/C [14] of 38.6%, a viability, T/C [15] of 20.2% and a viability, T/C [16] of 16.2%. For the same molecule, the viability, T/C (second compound 3.16 µM, first compound 0.000316 µM) was 106%, the viability, T/C (second compound 3.16 µM, first compound 0.001 µM) was 78.2% and the viability, T/C [17] was 99.8%. It also gave a viability, T/C [18] of 38.8%, a viability, T/C [19] of 20.5% and a viability, T/C [20] of 18.4%. It also gave a viability, T/C (second compound 10 µM, first compound 0.000316 µM) of 97.6%, a viability, T/C (second compound 10 µM, first compound 0.001 µM) of 87.6% and a viability, T/C [21] of 69.3%. The viability, T/C [22] was 34%, the viability, T/C [23] was 20.6% and the viability, T/C [24] was 19.1%.

With `CCc1c2c(nc3ccc(O)cc13)-c1cc3c(c(=O)n1C2)COC(=O)[C@]3(O)CC` + COC1C(OC(N)=O)C(O)C(Oc2ccc3c(O)c(NC(=O)c4ccc(O)c(CC=C(C)C)c4)c(=O)oc3c2C)OC1(C)C the IC50 (second compound 0.0316 µM) was < 0.00316 µM, the IC50 (second compound 0.1 µM) was < 0.00316 µM and the IC50 (second compound 0.316 µM) was < 0.00316 µM. The IC50 (second compound 1 µM) was < 0.00316 µM, the IC50 (second compound 3.16 µM) was < 0.00316 µM and the IC50 (second compound 10 µM) was < 0.00316 µM. The viability, T/C [1] was 25.5%, the viability, T/C [2] was 17.6% and the viability, T/C [3] was 10.6%. It also gave a viability, T/C [4] of 8.89%, a viability, T/C [25] of 5.32% and a viability, T/C [26] of 3.77%. For the same molecule, the viability, T/C [5] was 17.9%, the viability, T/C [6] was 16.7% and the viability, T/C [7] was 11%. The viability, T/C [8] was 7%, the viability, T/C [27] was 5.78% and the viability, T/C [28] was 3%. The viability, T/C [9] was 21.2%, the viability, T/C [10] was 15% and the viability, T/C [11] was 11.7%. For the same molecule, the viability, T/C [12] was 8.14%, the viability, T/C [29] was 5.95% and the viability, T/C [30] was 2.76%. It also gave a viability, T/C [13] of 18.1%, a viability, T/C [14] of 16.1% and a viability, T/C [15] of 11.3%. It also gave a viability, T/C [16] of 7.95%, a viability, T/C [31] of 8.47% and a viability, T/C [32] of 3.04%. For the same molecule, the viability, T/C [17] was 14.1%, the viability, T/C [18] was 16.3% and the viability, T/C [19] was 11%. It also gave a viability, T/C [20] of 7.05%, a viability, T/C [33] of 4.82% and a viability, T/C [34] of 3.32%. For the same molecule, the viability, T/C [21] was 23.3%, the viability, T/C [22] was 14.8% and the viability, T/C [23] was 12.8%. It also gave a viability, T/C [24] of 6.77%, a viability, T/C [35] of 5.07% and a viability, T/C [36] of 2.89%.

For `Nc1ccn(C2OC(CO)C(O)C2(F)F)c(=O)n1` (stereo not drawn) + COC1C(OC(N)=O)C(O)C(Oc2ccc3c(O)c(NC(=O)c4ccc(O)c(CC=C(C)C)c4)c(=O)oc3c2C)OC1(C)C, the IC50 (second compound 0.0316 µM) was < 0.0316 µM, the IC50 (second compound 0.1 µM) was < 0.0316 µM and the IC50 (second compound 0.316 µM) was < 0.0316 µM. For the same molecule, the IC50 (second compound 1 µM) was < 0.0316 µM, the IC50 (second compound 3.16 µM) was < 0.0316 µM and the IC50 (second compound 10 µM) was < 0.0316 µM. It also gave a viability, T/C [3] of 5.87%, a viability, T/C [4] of 4.61% and a viability, T/C [25] of 5.48%. It also gave a viability, T/C [26] of 4.5%, a viability, T/C [37] of 3.65% and a viability, T/C [38] of 3.38%. For the same molecule, the viability, T/C [7] was 5.96%, the viability, T/C [8] was 4.96% and the viability, T/C [27] was 5.53%. It also gave a viability, T/C [28] of 4.76%, a viability, T/C [39] of 3.8% and a viability, T/C [40] of 3.28%. It also gave a viability, T/C [11] of 5.1%, a viability, T/C [12] of 4.62% and a viability, T/C [29] of 5.85%. It also gave a viability, T/C [30] of 5.46%, a viability, T/C [41] of 3.59% and a viability, T/C [42] of 2.73%. It also gave a viability, T/C [15] of 4.99%, a viability, T/C [16] of 4.37% and a viability, T/C [31] of 5.56%. It also gave a viability, T/C [32] of 4.58%, a viability, T/C [43] of 4.04% and a viability, T/C [44] of 3.14%. The viability, T/C [19] was 4.75%, the viability, T/C [20] was 4.78% and the viability, T/C [33] was 5.45%. For the same molecule, the viability, T/C [34] was 4.57%, the viability, T/C [45] was 3.73% and the viability, T/C [46] was 3.65%. The viability, T/C [23] was 6.16%, the viability, T/C [24] was 4.98% and the viability, T/C [35] was 5.43%. The viability, T/C [36] was 5.17%, the viability, T/C [47] was 4.49% and the viability, T/C [48] was 3.17%.

`O=C(c1cc(Cc2n[nH]c(=O)c3ccccc23)ccc1F)N1CCN(C(=O)C2CC2)CC1` + COC1C(OC(N)=O)C(O)C(Oc2ccc3c(O)c(NC(=O)c4ccc(O)c(CC=C(C)C)c4)c(=O)oc3c2C)OC1(C)C showed an IC50 (second compound 0.0316 µM) of 2.18 µM, an IC50 (second compound 0.1 µM) of 4.58 µM and an IC50 (second compound 0.316 µM) of 3.28 µM. For the same molecule, the IC50 (second compound 1 µM) was 4.29 µM, the IC50 (second compound 3.16 µM) was 3.83 µM and the IC50 (second compound 10 µM) was 4.49 µM. It also gave a viability, T/C [3] of 71.5%, a viability, T/C [4] of 109% and a viability, T/C [25] of 88.3%. It also gave a viability, T/C [26] of 61.2%, a viability, T/C [37] of 49.8% and a viability, T/C [38] of 33.7%. For the same molecule, the viability, T/C [7] was 94.9%, the viability, T/C [8] was 86.5% and the viability, T/C [27] was 83.7%. The viability, T/C [28] was 68.2%, the viability, T/C [39] was 68.7% and the viability, T/C [40] was 25.8%. The viability, T/C [11] was 105%, the viability, T/C [12] was 98.4% and the viability, T/C [29] was 85.7%. It also gave a viability, T/C [30] of 90.1%, a viability, T/C [41] of 50% and a viability, T/C [42] of 32.2%. It also gave a viability, T/C [15] of 88.3%, a viability, T/C [16] of 99.9% and a viability, T/C [31] of 81.4%. The viability, T/C [32] was 75.7%, the viability, T/C [43] was 61.2% and the viability, T/C [44] was 24.3%. It also gave a viability, T/C [19] of 114%, a viability, T/C [20] of 92.5% and a viability, T/C [33] of 75.2%. It also gave a viability, T/C [34] of 70.3%, a viability, T/C [45] of 63.2% and a viability, T/C [46] of 30.2%. For the same molecule, the viability, T/C [23] was 90.5%, the viability, T/C [24] was 95.3% and the viability, T/C [35] was 68.8%. It also gave a viability, T/C [36] of 102%, a viability, T/C [47] of 60.7% and a viability, T/C [48] of 25.7%.
